# Reference: patent publication US20130109680A1, “METHODS AND COMPOSITIONS FOR AMELIORATING THIAZIDE INDUCED […]” (University of Florida Research Foundation, Inc., priority 2007, published 2013)
# “And” between values parts separate entries of the source, which are not always exact repeats. Identical values can stand only once. Marks after values point to notes of the source that are not given here.
# Tests used:
# Assay type in all cases: in vivo, Sprague Dawley rats
# [1] = tested on: rats on 60% fructose diet; test: Tail cuff systolic blood pressure measurement in fructose-fed rats; settings: for systolic blood pressure (SBP): conscious rats, mean±SD
# Procedure: (§1) Male Sprague Dawley rats (150-200 g, Charles River Inc., Wilmington, Mass.) were placed on a standard natural ingredient diet (catalog #7912, Harlan, Wis.) for a five day run-in period with collection of basal blood and urine. Rats were then divided into 5 groups with similar body weight and baseline blood chemistry (n=8 each group).
# (§2) Group 3 (F+HCTZ): 60% fructose diet plus hydrochlorothiazide (HCTZ, Sigma-Aldrich, St. Louis, Mo.) 10 mg/kg/day dissolved in drinking water
# (§3) We monitored serum K^+ and increased the concentration of KCL at week 5 (1.5% KCL), week 15 (1.75% KCL) and week 17 (2% KCL) to maintain normal k^+ level in serum through the whole study.
# (§4) Group 5 (F+HCTZ+Allopurinol): 60% fructose diet plus the same dose of HCTZ and allopurinol 150 mg/L dissolved in drinking water
# Systolic blood pressure (SBP) measurement was performed in conscious rats with the use of a tail-cuff sphygmomanometer (Visitech BP2000, Visitech Systems, Apex, N.C.) at weeks 4 and 16. After three time periods of preconditioning, rats were placed in prewarmed chambers (37° C.) for 10-15 min, the pressure and pulse were measured by an automatic tail-cuff inflater and a built-in transducer. The mean of three stable BP readings was used.
# [2] = tested on: rats on 60% fructose diet; test: Biochemical measurements of serum and urine in fructose-fed rats; settings: for serum uric acid (change in words): FIG. 2A; for serum uric acid (change in words) / serum triglycerides (change in words): weeks 4, 14, 20; for serum triglycerides (change in words): FIG. 2D
# Procedure: as §1, §2, §3, §4
# (§5) Rats were weighed weekly and housed separately in metabolic cages for overnight collection of urine (over 18 hrs) with free access to water and no food on weeks 4, 14 and 20. Four hour fasting serum was also collected from the tail vein within the same week of urine collection. At the end of week 20, rats were sacrificed.
# Serum and urine K^+ concentrations were determined with the atomic absorption spectrophotometer (Perkin-Elmer 306). Routine chemistries (including serum glucose, cholesterol, triglycerides, blood urea nitrogen (BUN), sodium, chloride, bicarbonate (HCO3^−) and magnesium (Mg^++); serum and urine creatinine (Cr), uric acid and urine protein concentration) were measured using an autoanalyzer (VetAce, Alfa Wassermann, Inc., West Caldwell, N.J.).
# [3] = tested on: rats on 60% fructose diet; test: Serum insulin and Quantitative Insulin Sensitivity Check Index (QUICKI); settings: for QUICKI / insulin sensitivity (in words): week 14, FIG. 3
# Procedure: as §1
# Fasting serum glucose and insulin were obtained at week 14 and used to calculate the QUICKI value. Serum insulin was determined by using the rat insulin ELISA kit (Crystal Chem, Chicago, Ill.) which can detect serum insulin in the range of 156-10,000 pg/ml and has the 3.5% intra-assay and 6.3% inter-assay precision. QUICKI is a mathematical model based on log-transformed fasting plasma glucose and insulin values by equal 1/(log [glucose]+log [insulin]). QUICKI predicts insulin sensitivity with lower values representing more insulin resistance.
# [4] = tested on: rats on 60% fructose diet; test: Insulin tolerance test (ITT); settings: week 18, 0.75 U/kg insulin i.p., FIG. 4
# Procedure: as §1
# At week 18, the ITT was performed on animals fasted for 16 hours by administering 0.75 U/kg recombinant human insulin (Novolin; Novo Nordisk, Princeton, N.J.) via intraperitoneal injection. Blood glucose was determined on tail blood via hand-held blood glucose monitor (OneTouch, Johnson & Johnson) at 5 points; before insulin injection, and at 15, 30, 45 and 60 minutes after insulin injection.
# [5] = tested on: rats on 60% fructose diet; test: Measurement of urinary nitric oxide (nitrate/nitrite); settings: FIG. 5
# Excerpt: as §1, §5
# Urine was determined NO by using the nitrate/nitrite colorimetric assay kit (Cayman Chemical Company, MI). The kit measures NO reaction products, total nitrate and nitrite concentrations with a modified two-step Griess reaction.
structure (smiles),measurement,setting,value
"NS(=O)(=O)c1cc2c(cc1Cl)NCNS2(=O)=O [F+HCTZ, hydrochlorothiazide]",effect on systolic blood pressure (in words),"[1]; FIG. 1, weeks 4 and 16",reduced the systolic blood pressure
same,systolic blood pressure (SBP),"[1]; week 4, tail cuff",129±4.6 mmHg
same,systolic blood pressure (SBP),"[1]; week 16, tail cuff",136±3.7 mmHg
same,serum uric acid (change in words),[2],greater hyperuricemia
same,serum uric acid (change in words),[2]; listed as Hydrochlorothiazide,more hyperuricemia
same,serum glucose (change in words),"[2]; FIG. 2B, weeks 14 and 20",hyperglycemia
same,serum cholesterol (change in words),[2]; FIG. 2C,numerical higher
same,serum triglycerides (change in words),[2],higher in the F+HCTZ group but did not reach statistical significance
same,serum triglycerides (change in words),[2]; listed as hydrochlorothiazide,numerical higher
same,Uric acid clearance,"[2]; Table 1, mean±SD",0.08 ± 0.03 ^& ml/min
same,Urine protein/Cr,"[2]; Table 1, mean±SD",2.53 ± 2.3
same,Urine uric acid,"[2]; Table 1, mean±SD",2.93 ± 1.0 ^& mg/day
same,Cr,"[2]; Table 1, serum, week 20, mean±SD",0.46 ± 0.11 mg/dL
same,BUN,"[2]; rat, in vivo","26.6 ± 14 *^, & mg/dL"
same,Serum K^+,"[2]; rat, in vivo","4.0 ± 0.1 *^, &, # mEq/L"
same,Serum Mg^++,"[2]; rat, in vivo","1.15 ± 0.1*^, & mEq/L"
same,serum HCO3^−,"[2]; rat, in vivo",24.7±1.1 mEq/L
same,serum K^+ (in words),"[2]; rat, in vivo",significantly lower
same,serum uric acid,"[2]; week 14 (implied by sentence), mean±SD",2.69 ± 0.47 mg/dL
same,serum glucose,"[2]; week 14, 4 h fasting serum, mean±SD",176 ± 13.3 mg/dL
same,serum triglycerides,"[2]; week 14, mean±SD",492 ± 154 mg/dL
same,serum glucose,"[2]; week 20, 4 h fasting serum, mean±SD",186 ± 21.9 mg/dL and 186 ± 22 mg/dL
same,serum glucose,"[2]; week 20, mean±SD",186 ± 22 mg/dL
same,serum triglycerides,"[2]; week 20, mean±SD",489 ± 178 mg/dL
same,serum uric acid,"[2]; week 20, mean±SD",2.76 ± 0.59 mg/dL
same,QUICKI / insulin sensitivity (in words),[3]; listed as HCTZ,significantly lower
same,QUICKI / insulin sensitivity (in words),[3]; listed as hydrochlorothiazide,significant lower insulin sensitivity
same,serum insulin concentration,"[3]; week 14, rat insulin ELISA, mean±SD",3449 ± 1200 pg/mL
same,blood glucose response to intraperitoneal insulin in ITT (in words),[4],maintained elevated serum glucose in response to insulin
same,blood glucose response to intraperitoneal insulin in ITT (in words),[4]; listed as hydrochlorothiazide,no change of blood glucose
same,urine nitrate/nitrite excretion (in words),[5],even lower nitrite excretion
same,urine nitrate/nitrite excretion (in words),[5]; listed as Hydrochlorothiazide,more reduction of urine nitrate and nitrite
